Data from the NIST ThermoML archive (doi:10.1021/acs.jced.7b01034).

Columns and labels:
[1] = Crystal; DTA
[2] = Molar enthalpy of transition or fusion; conditions: Crystal; DSC
[3] = molar heat capacity at constant pressure; conditions: 100 kPa, Crystal, DSC

O=c1c(O)c(-c2ccccc2)oc2ccccc12 [3-hydroxyflavone]
Conditions	Molar enthalpy of transition or fusion [kcal/mol]	Normal melting temperature [°C]
[1]	–	170.5
[2]	7.76	–

[3]
Conditions	molar heat capacity at constant pressure [J/K/mol]
293.15 K	268.9
298.15 K	270.1
303.15 K	272.8
308.15 K	275.3
313.15 K	278.3
318.15 K	280.8
323.15 K	284.2
328.15 K	287.6
333.15 K	291.5
338.15 K	295.2
343.15 K	298.9
348.15 K	303.2
353.15 K	306.8
358.15 K	310.8
363.15 K	315
368.15 K	319.4
373.15 K	323.7
378.15 K	328
383.15 K	332
388.15 K	336.9
393.15 K	341.6
398.15 K	346.8
403.15 K	351.6
408.15 K	356.3
413.15 K	361.2
418.15 K	366
423.15 K	372.3
428.15 K	379
433.15 K	386

O=c1cc(-c2ccccc2)oc2cccc(O)c12 [5-hydroxyflavone]
Conditions	Molar enthalpy of transition or fusion [kcal/mol]	Normal melting temperature [°C]
[1]	–	158
[2]	6.49	–

[3]
Conditions	molar heat capacity at constant pressure [J/K/mol]
293.15 K	274.6
298.15 K	279.8
303.15 K	285.1
308.15 K	289.4
313.15 K	297
318.15 K	302.8
323.15 K	307
328.15 K	311.2
333.15 K	312.9
338.15 K	315.9
343.15 K	319.5
348.15 K	323.8
353.15 K	328.8
358.15 K	334.4
363.15 K	338.5
368.15 K	344.8
373.15 K	347.9
378.15 K	350.8
383.15 K	355.6
388.15 K	360.1
393.15 K	365.3
398.15 K	369.6
403.15 K	373.8
408.15 K	377.7
413.15 K	382.3
418.15 K	387.6
423.15 K	395.5

Nc1ccc2oc(-c3ccccc3)cc(=O)c2c1 [6-aminoflavone]
Conditions	Molar enthalpy of transition or fusion [kcal/mol]	Normal melting temperature [°C]
[1]	–	198.8
[2]	7.27	–

[3]
Conditions	molar heat capacity at constant pressure [J/K/mol]
293.15 K	272.6
298.15 K	277.9
303.15 K	283.4
308.15 K	287.6
313.15 K	292.2
318.15 K	296.7
323.15 K	301.6
328.15 K	306.3
333.15 K	311.1
338.15 K	316.1
343.15 K	320.4
348.15 K	324.5
353.15 K	328.9
358.15 K	333.6
363.15 K	338.1
368.15 K	342.2
373.15 K	346.1
378.15 K	349.8
383.15 K	353.8
388.15 K	358.5
393.15 K	361.8
398.15 K	367.2
403.15 K	371
408.15 K	374.6
413.15 K	378.3
418.15 K	381.8
423.15 K	385.4
428.15 K	390.1
433.15 K	395.3
438.15 K	400.4
443.15 K	406.4
448.15 K	411.3
453.15 K	418.5
458.15 K	427.8

O=c1cc(-c2ccccc2)oc2ccc(O)cc12 [6-hydroxyflavone]
Conditions	Molar enthalpy of transition or fusion [kcal/mol]	Normal melting temperature [°C]
[1]	–	236.2
[2]	7.75	–

[3]
Conditions	molar heat capacity at constant pressure [J/K/mol]
293.15 K	244.4
298.15 K	250.3
303.15 K	255.3
308.15 K	260.4
313.15 K	265.7
318.15 K	271.1
323.15 K	277
328.15 K	282.6
333.15 K	287.5
338.15 K	292.7
343.15 K	297.3
348.15 K	302.4
353.15 K	307.1
358.15 K	312.4
363.15 K	317.2
368.15 K	321.9
373.15 K	326.7
378.15 K	330.6
383.15 K	335.1
388.15 K	339.8
393.15 K	344.4
398.15 K	348.9
403.15 K	353.2
408.15 K	358.3
413.15 K	362.3
418.15 K	365.8
423.15 K	370.3
428.15 K	373.7
433.15 K	376.9
438.15 K	380.8
443.15 K	383.5
448.15 K	385.7
453.15 K	388.4
458.15 K	391.5
463.15 K	394.2
468.15 K	397.1
473.15 K	399.2
478.15 K	402
483.15 K	404.1
488.15 K	406.1
493.15 K	408.4
498.15 K	412

O=c1cc(-c2ccccc2)oc2cc(O)ccc12 [7-hydroxyflavone]
Conditions	Molar enthalpy of transition or fusion [kcal/mol]	Normal melting temperature [°C]
[1]	–	242.1
[2]	7.46	–

[3]
Conditions	molar heat capacity at constant pressure [J/K/mol]
293.15 K	248.1
298.15 K	253.1
303.15 K	259.1
308.15 K	263.4
313.15 K	268.2
318.15 K	272
323.15 K	276.8
328.15 K	282.1
333.15 K	286
338.15 K	291.4
343.15 K	295.3
348.15 K	299.4
353.15 K	303.6
358.15 K	307.6
363.15 K	312.3
368.15 K	316.2
373.15 K	320.7
378.15 K	324.4
383.15 K	328.2
388.15 K	332.4
393.15 K	336
398.15 K	340.1
403.15 K	343.3
408.15 K	347
413.15 K	351.4
418.15 K	355.2
423.15 K	358.2
428.15 K	361.9
433.15 K	366.3
438.15 K	369.6
443.15 K	372.3
448.15 K	376.7
453.15 K	379.5
458.15 K	382.7
463.15 K	385.8
468.15 K	388.5
473.15 K	390.8
478.15 K	391.9
483.15 K	394
488.15 K	398.1
493.15 K	400.9
498.15 K	406.2

c1ccc2cc3ccccc3cc2c1 [anthracene]
Conditions	Molar enthalpy of transition or fusion [kcal/mol]	Normal melting temperature [°C]
[1]	–	216.6
[2]	7.33	–

[3]
Conditions	molar heat capacity at constant pressure [J/K/mol]
293.15 K	205.7
298.15 K	209.9
303.15 K	213.9
308.15 K	217.6
313.15 K	221.7
318.15 K	225.4
323.15 K	229.6
328.15 K	234.2
333.15 K	237.9
338.15 K	242.2
343.15 K	246.5
348.15 K	250.7
353.15 K	254.9
358.15 K	258.8
363.15 K	262.9
368.15 K	266.9
373.15 K	270.6
378.15 K	275.2
383.15 K	279.2
388.15 K	283.2
393.15 K	286.9
398.15 K	291.7
403.15 K	295.8
408.15 K	299.3
413.15 K	303.3
418.15 K	306.8
423.15 K	309.9
428.15 K	313.4
433.15 K	317.4

O=C(O)c1ccccc1 [benzoic acid]
Conditions	Molar enthalpy of transition or fusion [kcal/mol]	Normal melting temperature [°C]
[1]	–	122.2
[2]	4.44	–

[3]
Conditions	molar heat capacity at constant pressure [J/K/mol]
293.15 K	143.2
298.15 K	145.2
303.15 K	147.5
308.15 K	149.6
313.15 K	151.4
318.15 K	153
323.15 K	155.4
328.15 K	157.8
333.15 K	160
338.15 K	162.2
343.15 K	164.4
348.15 K	166.6
353.15 K	169.1
358.15 K	171.7
363.15 K	174.4
368.15 K	176.8
373.15 K	179.2
378.15 K	182
383.15 K	185.4
388.15 K	190.1

c1cc2ccc3cccc4ccc(c1)c2c34 [pyrene]
Conditions	Molar enthalpy of transition or fusion [kcal/mol]	Normal melting temperature [°C]
[1]	–	150.8
[2]	4.15	–

[3]
Conditions	molar heat capacity at constant pressure [J/K/mol]
293.15 K	221.9
298.15 K	225.8
303.15 K	230.2
308.15 K	234.3
313.15 K	238.7
318.15 K	243
323.15 K	247.5
328.15 K	252.6
333.15 K	258.1
338.15 K	263.6
343.15 K	268.9
348.15 K	274.1
353.15 K	279.8
358.15 K	285.4
363.15 K	291.4
368.15 K	298.2
373.15 K	304.6
378.15 K	310.7
383.15 K	317.5
388.15 K	325.7
393.15 K	333.7
398.15 K	341.5
403.15 K	349.9
408.15 K	359.2
413.15 K	372.2
